BindingDB's records for PubMed 7908054 (University of Nebraska, 1994)
“And” between values parts separate entries of the source, which are not always exact repeats. Equal values may be shown once.

Tests used:
[1] = target: T1, Alpha-2A adrenergic receptor (Bos taurus, UniProt Q28838)
T1 sequence (Q28838 whole entry): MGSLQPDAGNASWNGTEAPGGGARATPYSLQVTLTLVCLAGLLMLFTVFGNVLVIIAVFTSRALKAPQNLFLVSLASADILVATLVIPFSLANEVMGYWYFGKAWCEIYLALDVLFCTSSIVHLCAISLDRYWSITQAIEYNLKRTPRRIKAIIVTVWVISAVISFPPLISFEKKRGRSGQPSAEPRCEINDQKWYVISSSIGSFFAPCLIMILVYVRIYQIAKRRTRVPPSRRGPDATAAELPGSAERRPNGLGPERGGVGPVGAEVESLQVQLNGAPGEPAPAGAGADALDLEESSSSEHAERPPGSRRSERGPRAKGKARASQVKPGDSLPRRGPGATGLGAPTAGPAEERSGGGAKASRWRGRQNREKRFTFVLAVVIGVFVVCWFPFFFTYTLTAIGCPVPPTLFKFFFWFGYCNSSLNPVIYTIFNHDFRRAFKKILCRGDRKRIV

[2] = target: T2, Alpha-2B adrenergic receptor (Didelphis virginiana, UniProt O77715)
T2 sequence (O77715 whole entry): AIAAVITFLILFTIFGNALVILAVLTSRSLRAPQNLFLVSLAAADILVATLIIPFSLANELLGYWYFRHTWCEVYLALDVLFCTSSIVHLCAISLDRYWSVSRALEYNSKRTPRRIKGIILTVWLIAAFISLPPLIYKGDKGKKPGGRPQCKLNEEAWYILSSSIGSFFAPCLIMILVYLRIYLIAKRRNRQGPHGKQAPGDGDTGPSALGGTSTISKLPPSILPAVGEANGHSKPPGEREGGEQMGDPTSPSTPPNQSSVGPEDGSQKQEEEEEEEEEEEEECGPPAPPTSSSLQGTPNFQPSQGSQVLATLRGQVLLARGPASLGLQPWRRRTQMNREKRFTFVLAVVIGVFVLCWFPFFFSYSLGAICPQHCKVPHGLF

[3] = target: T3, Alpha-2A adrenergic receptor (Homo sapiens, UniProt P08913)
T3 sequence (P08913 whole entry): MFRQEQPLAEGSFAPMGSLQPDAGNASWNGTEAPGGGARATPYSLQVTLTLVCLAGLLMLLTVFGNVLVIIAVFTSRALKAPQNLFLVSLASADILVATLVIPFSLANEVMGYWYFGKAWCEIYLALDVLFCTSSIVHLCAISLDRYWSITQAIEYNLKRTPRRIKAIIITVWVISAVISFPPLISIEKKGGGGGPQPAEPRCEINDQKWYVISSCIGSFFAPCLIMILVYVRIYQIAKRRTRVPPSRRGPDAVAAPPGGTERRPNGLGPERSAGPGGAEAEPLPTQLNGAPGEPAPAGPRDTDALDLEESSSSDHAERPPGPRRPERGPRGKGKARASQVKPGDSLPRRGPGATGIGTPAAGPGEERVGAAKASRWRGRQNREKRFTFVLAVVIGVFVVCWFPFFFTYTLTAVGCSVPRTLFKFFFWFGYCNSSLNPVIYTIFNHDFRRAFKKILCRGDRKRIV

[4] = target: T4, Alpha-2C adrenergic receptor (Rattus norvegicus, UniProt P22086)
T4 sequence (P22086 whole entry): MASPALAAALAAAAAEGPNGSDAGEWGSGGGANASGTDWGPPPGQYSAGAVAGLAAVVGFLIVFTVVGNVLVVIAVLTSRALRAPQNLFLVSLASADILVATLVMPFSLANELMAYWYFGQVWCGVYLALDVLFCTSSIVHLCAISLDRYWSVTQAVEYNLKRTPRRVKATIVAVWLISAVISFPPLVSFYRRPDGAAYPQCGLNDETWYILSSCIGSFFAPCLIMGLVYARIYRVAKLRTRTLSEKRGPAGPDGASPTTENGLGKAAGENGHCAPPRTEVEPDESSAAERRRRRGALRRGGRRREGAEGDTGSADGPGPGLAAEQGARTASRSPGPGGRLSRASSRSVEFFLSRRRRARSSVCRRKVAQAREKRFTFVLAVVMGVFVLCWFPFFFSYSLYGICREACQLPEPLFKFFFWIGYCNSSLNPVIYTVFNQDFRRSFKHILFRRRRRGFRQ

Row | SMILES | Ki [1] | Ki [2] | Ki [3] [µM] | Ki [4]
1 | COc1cc2nc(N3CCN(C(=O)c4ccco4)CC3)nc(N)c2cc1OC [[3H]-Minipress] | 0.692 µM and 1.32 µM | 0.132 µM and 0.117 µM |  | 
2 | O=C1NCN(c2ccccc2)C12CCN(CC1COc3ccccc3O1)CC2 (stereo unspecified) [8-(2,3-Dihydro-benzo[1,4]dioxin-2-ylmethyl)-1-phenyl-1,3,8-triaza-spiro[4.5]decan-4-one] | 0.00933 µM and 0.012 µM | 0.00026 µM and 0.00061 µM | 0.00954 | 0.00028 µM and 0.0007 µM
3 | CC(C)=CCOc1ccc(Cl)c2c1CCN(C)CC2 [SK&F-104078] | 0.0813 µM and 0.145 µM | 0.0426 µM and 0.055 µM | 0.0398 | 0.049 µM and 0.0692 µM
4 | Cc1cc(C(C)(C)C)c(O)c(C)c1CC1=NCCN1 [SMR000059324] | 0.038 µM and 0.0331 µM | 0.0151 µM |  | 
5 | NCC(O)c1ccc(O)c(O)c1 (stereo not drawn) [Noradrenaline,(+)] | 0.933 µM and 1.05 µM | 0.0282 µM |  | 
6 | COc1cccc(OC)c1OCCNCC1Oc2ccccc2OC1c1ccccc1 (stereo unspecified) [NSC_185453] | 0.00758 µM and 0.0135 µM | 0.00063 µM and 0.001 µM | 0.00218 | 0.00776 µM and 0.0186 µM
7 | COc1ccccc1N1CCN(CCC2C(=O)c3ccccc3C(C)(C)C2=O)CC1 (stereo unspecified) [NSC_122211] | 0.148 µM and 0.324 µM | 0.0129 µM and 0.0468 µM | 0.219 | 0.00158 µM and 0.00229 µM
8 | CN1C[C@H](Cn2ccnc2-c2ccccc2)C[C@@H]2c3cccc4[nH]c(Br)c(c34)C[C@H]21 [BAM-1303] | 0.0537 µM and 0.2 µM | 0.00038 µM and 0.00047 µM | 0.00093 | 0.00691 µM and 0.0087 µM
